Assay results published in PubChem BioAssay AID1963858 (Molecular Pharmacology Branch, DTP, NCI, 2024).

System: HOP-62 multicell spheroids with HUVEC/MSC, viability
Test: Anticancer human tumor HOP-62 cell line growth inhibition [KRAS2];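 note: viability read after a week of compound exposure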;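 for viability, T/C: 100% = DMSO vehicle-treated spheroids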
Details: for IC50: curve of first compound; for viability, T/C: stronger effect = lower value; active = viability on the fitted dose curve at most 10% of control; inactive = the rest
Procedure, shortened: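 Combination screen of spheroid viability in tumor-cell co-cultures with endothelial (HUVEC) and mesenchymal stem cell stroma. Each agent was tested in half-log dilutions, topping at clinical Cmax or at 10 microM without a known Cmax.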

[1] = second compound 0.1 µM, first compound 0.000316 µM
[2] = second compound 0.1 µM, first compound 0.001 µM
[3] = second compound 0.1 µM, first compound 0.00316 µM
[4] = second compound 0.1 µM, first compound 0.01 µM
[5] = second compound 0.1 µM, first compound 0.0316 µM
[6] = second compound 0.1 µM, first compound 0.1 µM
[7] = second compound 0.316 µM, first compound 0.000316 µM
[8] = second compound 0.316 µM, first compound 0.001 µM
[9] = second compound 0.316 µM, first compound 0.00316 µM
[10] = second compound 0.316 µM, first compound 0.01 µM
[11] = second compound 0.316 µM, first compound 0.0316 µM
[12] = second compound 0.316 µM, first compound 0.1 µM
[13] = second compound 1 µM, first compound 0.000316 µM
[14] = second compound 1 µM, first compound 0.001 µM
[15] = second compound 1 µM, first compound 0.00316 µM
[16] = second compound 1 µM, first compound 0.01 µM
[17] = second compound 1 µM, first compound 0.0316 µM
[18] = second compound 1 µM, first compound 0.1 µM
[19] = second compound 3.16 µM, first compound 0.000316 µM
[20] = second compound 3.16 µM, first compound 0.001 µM
[21] = second compound 3.16 µM, first compound 0.00316 µM
[22] = second compound 3.16 µM, first compound 0.01 µM
[23] = second compound 3.16 µM, first compound 0.0316 µM
[24] = second compound 3.16 µM, first compound 0.1 µM
[25] = second compound 10 µM, first compound 0.000316 µM
[26] = second compound 10 µM, first compound 0.001 µM
[27] = second compound 10 µM, first compound 0.00316 µM
[28] = second compound 10 µM, first compound 0.01 µM
[29] = second compound 10 µM, first compound 0.0316 µM
[30] = second compound 10 µM, first compound 0.1 µM
[31] = second compound 0.1 µM, first compound 0.316 µM
[32] = second compound 0.1 µM, first compound 1 µM
[33] = second compound 0.1 µM, first compound 3.16 µM
[34] = second compound 0.1 µM, first compound 10 µM
[35] = second compound 0.316 µM, first compound 0.316 µM
[36] = second compound 0.316 µM, first compound 1 µM
[37] = second compound 0.316 µM, first compound 3.16 µM
[38] = second compound 0.316 µM, first compound 10 µM
[39] = second compound 1 µM, first compound 0.316 µM
[40] = second compound 1 µM, first compound 1 µM
[41] = second compound 1 µM, first compound 3.16 µM
[42] = second compound 1 µM, first compound 10 µM
[43] = second compound 3.16 µM, first compound 0.316 µM
[44] = second compound 3.16 µM, first compound 1 µM
[45] = second compound 3.16 µM, first compound 3.16 µM
[46] = second compound 3.16 µM, first compound 10 µM
[47] = second compound 10 µM, first compound 0.316 µM
[48] = second compound 10 µM, first compound 1 µM
[49] = second compound 10 µM, first compound 3.16 µM
[50] = second compound 10 µM, first compound 10 µM

CN(C)C/C=C/C(=O)Nc1cc2c(Nc3ccc(F)c(Cl)c3)ncnc2cc1O[C@H]1CCOC1 + CNCc1ccccc1-c1csc(C(C)Nc2nc(C)nc3cc(OC)c(OC)cc23)c1
< 0.316 nM: IC50 (second compound 10 µM)
0.515 nM: IC50 (second compound 3.16 µM)
> 100 nM: IC50 (second compound 0.1 µM) | IC50 (second compound 0.316 µM) | IC50 (second compound 1 µM)
inactive: viability, T/C [1] 110% | viability, T/C [2] 106% | viability, T/C [3] 111% | viability, T/C [4] 115% | viability, T/C [5] 111% | viability, T/C [6] 96.5% | viability, T/C [7] 124% | viability, T/C [8] 115% | viability, T/C [9] 110% | viability, T/C [10] 109% | viability, T/C [11] 113% | viability, T/C [12] 108% | viability, T/C [13] 101% | viability, T/C [14] 105% | viability, T/C [15] 101% | viability, T/C [16] 99.8% | viability, T/C [17] 85.8% | viability, T/C [18] 101% | viability, T/C [19] 73.8% | viability, T/C [20] 16.4% | viability, T/C [21] 19.2% | viability, T/C [22] 6.17% | viability, T/C [23] 31.4% | viability, T/C [24] 14%
active: viability, T/C [25] 0.18% | viability, T/C [26] 0.14% | viability, T/C [27] 0.15% | viability, T/C [28] 0.15% | viability, T/C [29] 0.16% | viability, T/C [30] 1.46%

COc1cc(Nc2ncc3c(n2)-c2ccc(Cl)cc2C(c2c(F)cccc2OC)=NC3)ccc1C(=O)O
inactive: viability, T/C (compound 0.316 µM) 51% [middle of 5 runs] | viability, T/C (compound 1 µM) 42.8% [middle of 5 runs] | viability, T/C (compound 3.16 µM) 33.8% [middle of 5 runs] | viability, T/C (compound 10 µM) 20.9% [middle of 5 runs]

CCNC(=O)CC1N=C(c2ccc(Cl)cc2)c2cc(OC)ccc2-n2c(C)nnc21 (centres undefined) + CC1OCC2(CCN(c3cnc(Sc4ccnc(N)c4Cl)c(N)n3)CC2)C1N
50.8 nM: IC50 (second compound 3.16 µM)
250 nM: IC50 (second compound 0.1 µM)
< 31.6 nM: IC50 (second compound 10 µM)
136 nM: IC50 (second compound 1 µM)
active: viability, T/C [50] 9.82%
200 nM: IC50 (second compound 0.316 µM)
inactive: viability, T/C [5] 103% | viability, T/C [6] 74.5% | viability, T/C [31] 45.2% | viability, T/C [32] 27.6% | viability, T/C [33] 28.6% | viability, T/C [34] 28.1% | viability, T/C [11] 96.2% | viability, T/C [12] 65.5% | viability, T/C [35] 40.9% | viability, T/C [36] 25.1% | viability, T/C [37] 24.3% | viability, T/C [38] 23.6% | viability, T/C [17] 75.9% | viability, T/C [18] 55.6% | viability, T/C [39] 34.5% | viability, T/C [40] 19.8% | viability, T/C [41] 22.1% | viability, T/C [42] 19.7% | viability, T/C [23] 60% | viability, T/C [24] 35.5% | viability, T/C [43] 25.9% | viability, T/C [44] 21.2% | viability, T/C [45] 16.1% | viability, T/C [46] 15.3% | viability, T/C [29] 32.4% | viability, T/C [30] 21.7% | viability, T/C [47] 18.6% | viability, T/C [48] 11.5% | viability, T/C [49] 11.7%

Cn1ncnc1[C@H]1c2n[nH]c(=O)c3cc(F)cc(c23)N[C@@H]1c1ccc(F)cc1 + COc1cc2nc(C)nc(NC(C)c3cc(N)cc(C(F)(F)F)c3)c2cc1OC1CCOC1
inactive: viability, T/C [1] 95.1% | viability, T/C [2] 102% | viability, T/C [3] 94.3% | viability, T/C [4] 87% | viability, T/C [5] 97.6% | viability, T/C [6] 70.4% | viability, T/C [7] 104% | viability, T/C [8] 91.7% | viability, T/C [9] 86.8% | viability, T/C [10] 94.2% | viability, T/C [11] 83.5% | viability, T/C [12] 78.8% | viability, T/C [13] 96% | viability, T/C [14] 89.5% | viability, T/C [15] 69.9% | viability, T/C [16] 66.6% | viability, T/C [17] 66% | viability, T/C [18] 57.1% | viability, T/C [19] 75.7% | viability, T/C [20] 85.6% | viability, T/C [21] 72.8% | viability, T/C [22] 58.1% | viability, T/C [23] 48.5% | viability, T/C [24] 51% | viability, T/C [25] 58.6% | viability, T/C [26] 59% | viability, T/C [27] 50.8% | viability, T/C [28] 40.8% | viability, T/C [29] 42.8% | viability, T/C [30] 41.6%
> 100 nM: IC50 (second compound 0.1 µM) | IC50 (second compound 0.316 µM) | IC50 (second compound 1 µM)
74.2 nM: IC50 (second compound 3.16 µM)
2.96 nM: IC50 (second compound 10 µM)

CCNC(=O)CC1N=C(c2ccc(Cl)cc2)c2cc(OC)ccc2-n2c(C)nnc21 (centres undefined) + COc1cc2nc(C)nc(NC(C)c3cc(N)cc(C(F)(F)F)c3)c2cc1OC1CCOC1
60.8 nM: IC50 (second compound 3.16 µM)
< 31.6 nM: IC50 (second compound 10 µM)
271 nM: IC50 (second compound 0.1 µM)
active: viability, T/C [49] 9.2% | viability, T/C [50] 4.11%
inactive: viability, T/C [5] 90.5% | viability, T/C [6] 75.9% | viability, T/C [31] 44.3% | viability, T/C [32] 29.4% | viability, T/C [33] 21.9% | viability, T/C [34] 18.2% | viability, T/C [11] 90.4% | viability, T/C [12] 65% | viability, T/C [35] 37.8% | viability, T/C [36] 23.7% | viability, T/C [37] 19% | viability, T/C [38] 18.5% | viability, T/C [17] 89.2% | viability, T/C [18] 59.8% | viability, T/C [39] 46.9% | viability, T/C [40] 17.5% | viability, T/C [41] 16.9% | viability, T/C [42] 14.4% | viability, T/C [23] 60.1% | viability, T/C [24] 41.7% | viability, T/C [43] 29.1% | viability, T/C [44] 17.2% | viability, T/C [45] 15.5% | viability, T/C [46] 15.2% | viability, T/C [29] 43% | viability, T/C [30] 35.9% | viability, T/C [47] 29.3% | viability, T/C [48] 15.8%
193 nM: IC50 (second compound 1 µM)
189 nM: IC50 (second compound 0.316 µM)

CN(C)C/C=C/C(=O)Nc1cc2c(Nc3ccc(F)c(Cl)c3)ncnc2cc1O[C@H]1CCOC1 + C=CC(=O)N1CCN(c2nc(=O)n(-c3c(C)ccnc3C(C)C)c3nc(-c4c(O)cccc4F)c(F)cc23)C(C)C1
inactive: viability, T/C [1] 65.1% | viability, T/C [2] 69.1% | viability, T/C [3] 67.8% | viability, T/C [4] 58.9% | viability, T/C [5] 54.4% | viability, T/C [6] 65.7% | viability, T/C [7] 79.5% | viability, T/C [8] 69.9% | viability, T/C [9] 66% | viability, T/C [10] 65% | viability, T/C [11] 51.1% | viability, T/C [12] 58% | viability, T/C [13] 81.1% | viability, T/C [14] 80.5% | viability, T/C [15] 61.9% | viability, T/C [16] 69.8% | viability, T/C [17] 61.1% | viability, T/C [18] 62.4% | viability, T/C [19] 71.5% | viability, T/C [20] 65.1% | viability, T/C [21] 70.9% | viability, T/C [22] 71.8% | viability, T/C [23] 63.4% | viability, T/C [24] 54% | viability, T/C [25] 56.9% | viability, T/C [26] 51.1% | viability, T/C [27] 54.5% | viability, T/C [28] 52% | viability, T/C [29] 48.6% | viability, T/C [30] 42.3%
> 100 nM: IC50 (second compound 0.1 µM) | IC50 (second compound 0.316 µM) | IC50 (second compound 1 µM) | IC50 (second compound 3.16 µM)
19.2 nM: IC50 (second compound 10 µM)

O=C(c1cc(Cc2n[nH]c(=O)c3ccccc23)ccc1F)N1CCN(C(=O)C2CC2)CC1 + CNCc1ccccc1-c1csc(C(C)Nc2nc(C)nc3cc(OC)c(OC)cc23)c1
inactive: viability, T/C [5] 105% | viability, T/C [6] 106% | viability, T/C [31] 97.6% | viability, T/C [32] 86% | viability, T/C [33] 65.7% | viability, T/C [34] 43.3% | viability, T/C [11] 85.7% | viability, T/C [12] 84.3% | viability, T/C [35] 83.2% | viability, T/C [36] 85.3% | viability, T/C [37] 65.9% | viability, T/C [38] 42.1% | viability, T/C [17] 84.7% | viability, T/C [18] 85.3% | viability, T/C [39] 78.9% | viability, T/C [40] 83.2% | viability, T/C [41] 59.5% | viability, T/C [42] 42.8% | viability, T/C [23] 35.1% | viability, T/C [24] 35.4% | viability, T/C [43] 28.4% | viability, T/C [44] 0.6% | viability, T/C [45] 42.3%
7080 nM: IC50 (second compound 0.1 µM)
6100 nM: IC50 (second compound 1 µM)
< 31.6 nM: IC50 (second compound 3.16 µM) | IC50 (second compound 10 µM)
active: viability, T/C [46] 0.43% | viability, T/C [29] 0.17% | viability, T/C [30] 0.21% | viability, T/C [47] 29.1% | viability, T/C [48] 0.15% | viability, T/C [49] 0.14% | viability, T/C [50] 1.69%
6810 nM: IC50 (second compound 0.316 µM)
